Assay results as given in article PMC8348686, “The Pharmacological Profile of Second Generation Pyrovalerone Cathinones and Related Cathinone Derivative” (International Journal of Molecular Sciences, 2021).

Assays:
h5-HT2B receptor = target: T1, h5-HT2B receptor (Homo sapiens, UniProt P41595); test: Activation potency, FLIPR calcium assay in HEK293 cells; type: cell-based
T1 construct: expressed in transfected cells; host or cells: HEK293
Experimental: Human embryonic kidney 293 (HEK293) cells were transfected with the human 5-HT2B receptors, seed into 96-well plates coated with poly-D-lysine at a concentration of 50,000 cell per 0.1 mL and then incubated for overnight at 37 °C in high glucose Dulbecco’s modified Eagle’s medium (DMEM; Invitrogen, Zug, Switzerland) containing 10% fetal calf serum (non-dialyzed, heat-inactivated), 250 mg/L Geneticin, and 10 mL/L PenStrep (Gibco). The medium was then removed using snap inversion and the cells were incubated with the 100 μL/well of calcium indicator Fluo-3-solution for 45 min at 31 °C (Molecular Probes, Eugene, OR, USA). Thereafter, the solution was removed using snap inversion and replaced with fresh calcium indicator Fluo-3-solution for an additional 45 min at 31 °C. The cells were then washed with HBSS and 20 mM HEPES using the EMBLA cell washer and immediately after incubated with 100 μL of assay buffer. The plate was then put into the FLIPR, turned online and the test drugs, diluted in the assay buffer were added to the corresponding wells (25 μL/well). The corresponding concentration vs. response curves were fitted using nonlinear regression and the EC50 values were calculated. The efficacy (maximal activity) was calculated relative to 5-HT activity, which was defined as 100%.

h5-HT2A receptor [1] = target: T2, h5-HT2A receptor (Homo sapiens, UniProt P28223); test: Activation potency, FLIPR calcium assay in NIH-3T3 cells; type: cell-based; set-up: expressed in transfected cells
Experimental: Mouse embryonic fibroblasts (NIH-3T3) were transfected with the human 5-HT2A receptors, seed into 96-well plates coated with poly-D-lysine at a concentration of 70,000 cell per 0.1 mL and then incubated for 1 h at 37 °C in HEPES-Hank’s Balanced Salt Solution (HBSS) buffer (Gibco). Next, the plates were exposed to 100 μL/well of dye solution for 1 h at 37 °C inside the FLIPR (fluorescence imagining plate reader [FLIPR] calcium 5 assay kit; Molecular Devices, Sunnyvale, CA, USA). Then, the plates were exposed to the 25 μL/well of test drugs dissolved in HEPES–HBSS buffer and 250 mM probencid during online mode. The corresponding concentration vs. response curves were fitted using nonlinear regression and the EC50 values were calculated. The efficacy (maximal activity) was calculated relative to 5-HT activity, which was defined as 100%.

h5-HT2A receptor [2] = target: T2, h5-HT2A receptor; test: Radioligand binding, [3H]-ketanserin; set-up: expressed in transfected cells; host or cells: HEK293 cell preparations
Experimental: (§1) The radioligand binding assays for the human 5-HT1A, 5-HT2A, and 5-HT2C receptors were examined as previously described by. In summary, the human embryonic kidney 293 (HEK293) cell preparations were stably transfected with the human 5-HT1A, 5-HT2A or 5-HT2C receptors and then incubated with their respective radiolabelled ligands at a concentration equal to the dissociation constant, Kd. The following radioligands were used for the 5-HT1A, 5-HT2A, and 5-HT2C receptors, respectively; 0.90 nM [^3H]8-hydroxy-2-(dipropylamino) tetralin (8-OH-DPAT), 0.40 nM [^3H]ketanserin, and 1.4 nM [^3H]mesulgerine. The radioligand displacement for each examined drug was determined. Specific binding of the radioligand to the target was calculated by subtracting the nonspecific binding (in the presence of the receptor’s competitor in excess) from the total observed binding. The following radioligand competitors were used for the 5-HT1A, 5-HT2A, and 5-HT2C receptors, respectively; 10 μM pindolol (5-HT1A receptor), 10 μM spiperone (5-HT2A receptor), and 10 μM mianserin (5-HT2C receptor).

h5-HT2C receptor = target: T3, h5-HT2C receptor (Homo sapiens, UniProt P28335); test: Radioligand binding, [3H]-mesulgerine
T3 construct: expressed in transfected cells; host or cells: HEK293 cell preparations
T3 sequence (P28335 33-458): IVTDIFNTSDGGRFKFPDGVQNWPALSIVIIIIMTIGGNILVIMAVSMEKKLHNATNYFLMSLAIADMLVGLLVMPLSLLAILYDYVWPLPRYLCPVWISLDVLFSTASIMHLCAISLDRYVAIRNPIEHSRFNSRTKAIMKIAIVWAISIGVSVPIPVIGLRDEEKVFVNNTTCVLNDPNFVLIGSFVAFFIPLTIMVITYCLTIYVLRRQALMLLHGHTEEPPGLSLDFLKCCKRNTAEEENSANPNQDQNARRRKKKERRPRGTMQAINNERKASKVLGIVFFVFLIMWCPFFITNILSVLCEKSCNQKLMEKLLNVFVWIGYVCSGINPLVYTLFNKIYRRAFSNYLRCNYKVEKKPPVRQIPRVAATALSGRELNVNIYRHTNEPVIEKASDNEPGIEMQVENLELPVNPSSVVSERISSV
Experimental: as §1

T1 sequence (P41595 whole entry): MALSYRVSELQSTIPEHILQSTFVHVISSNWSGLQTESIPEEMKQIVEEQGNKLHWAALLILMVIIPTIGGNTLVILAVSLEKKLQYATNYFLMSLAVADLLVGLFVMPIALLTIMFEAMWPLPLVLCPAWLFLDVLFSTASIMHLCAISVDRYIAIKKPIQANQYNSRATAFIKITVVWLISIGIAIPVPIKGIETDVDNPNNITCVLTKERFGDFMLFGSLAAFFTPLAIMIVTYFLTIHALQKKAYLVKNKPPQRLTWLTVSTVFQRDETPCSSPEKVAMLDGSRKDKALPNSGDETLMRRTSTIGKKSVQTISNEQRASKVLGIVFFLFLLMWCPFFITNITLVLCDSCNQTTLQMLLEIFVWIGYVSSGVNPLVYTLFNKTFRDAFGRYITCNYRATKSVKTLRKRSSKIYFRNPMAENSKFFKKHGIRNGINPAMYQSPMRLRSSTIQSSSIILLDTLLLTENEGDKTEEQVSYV
T2 sequence (P28223 whole entry): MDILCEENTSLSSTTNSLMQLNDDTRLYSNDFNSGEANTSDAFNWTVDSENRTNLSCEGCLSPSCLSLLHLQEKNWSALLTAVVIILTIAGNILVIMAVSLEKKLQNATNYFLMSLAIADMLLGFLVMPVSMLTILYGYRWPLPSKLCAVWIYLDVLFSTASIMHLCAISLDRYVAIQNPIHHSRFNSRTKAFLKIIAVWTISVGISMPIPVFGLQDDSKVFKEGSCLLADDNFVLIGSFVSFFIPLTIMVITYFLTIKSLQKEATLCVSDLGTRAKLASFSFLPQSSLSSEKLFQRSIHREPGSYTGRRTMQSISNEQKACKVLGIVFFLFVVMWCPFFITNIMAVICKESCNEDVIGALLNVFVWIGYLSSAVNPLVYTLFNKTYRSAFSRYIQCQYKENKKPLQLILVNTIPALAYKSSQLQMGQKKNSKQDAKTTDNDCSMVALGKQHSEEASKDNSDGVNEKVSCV

## CCCC(C(=O)c1ccc2c(c1)OCO2)N1CCCC1 (stereo not shown) [MDPV, 3,4-methylenedioxypyrovalerone]
h5-HT2B receptor
  EC50: > 20 µM
h5-HT2A receptor [1]
  EC50: > 20 µM
h5-HT2A receptor [2]
  Ki: > 13 µM
h5-HT2C receptor
  Ki: > 15 µM

## CCCCC(C(=O)c1ccccc1)N1CCCC1 (stereo not drawn) [α-PHP, α-pyrrolidinohexanophenone]
h5-HT2B receptor
  EC50: > 20 µM
h5-HT2A receptor [1]
  EC50: > 20 µM
h5-HT2A receptor [2]
  Ki: > 13 µM
h5-HT2C receptor
  Ki: > 15 µM

## CCCC(C(=O)c1ccc(C)cc1)N1CCCC1 (stereo not shown) [Pyrovalerone, pyrovalerone]
h5-HT2B receptor
  EC50: > 20 µM
h5-HT2A receptor [1]
  EC50: > 20 µM
h5-HT2A receptor [2]
  Ki: > 13 µM
h5-HT2C receptor
  Ki: > 15 µM

## CCCCC(C(=O)c1ccc2c(c1)OCO2)N1CCCC1 (stereo not drawn) [MDPHP, 3,4-methylenedioxy-α-pyrrolidinohexanophenone]
h5-HT2B receptor
  EC50: > 20 µM
h5-HT2A receptor [1]
  EC50: > 20 µM
h5-HT2A receptor [2]
  Ki: > 13 µM
h5-HT2C receptor
  Ki: > 15 µM

## CCC(C(=O)c1ccc(F)cc1)N1CCCC1 (stereo not drawn) [4F-PBP, 4-fluoro-α-pyrrolidinobutiophenone]
h5-HT2B receptor
  EC50: > 20 µM
h5-HT2A receptor [1]
  EC50: > 20 µM
h5-HT2A receptor [2]
  Ki: > 13 µM
h5-HT2C receptor
  Ki: > 15 µM

## CCCCC(C(=O)c1ccc(C)cc1)N1CCCC1 (stereo not drawn) [MPHP, 4-methyl-α-pyrrolidinohexanophenone]
h5-HT2B receptor
  EC50: > 20 µM
h5-HT2A receptor [1]
  EC50: > 20 µM
h5-HT2A receptor [2]
  Ki: 7.3 ± 1.2 µM
h5-HT2C receptor
  Ki: > 15 µM

## CC(C(=O)c1ccc2c(c1)OCO2)N1CCCC1 (stereo not drawn) [MDPPP, 3,4-methylenedioxy-α-pyrrolidinopropiophenone]
h5-HT2B receptor
  EC50: > 20 µM
h5-HT2A receptor [1]
  EC50: > 20 µM
h5-HT2A receptor [2]
  Ki: 8 ± 1.2 µM
h5-HT2C receptor
  Ki: > 15 µM

## CC(C(=O)c1ccccc1)N1CCCC1 (stereo not drawn) [α-PPP, α-pyrrolidinopropiophenone]
h5-HT2B receptor
  EC50: > 20 µM
h5-HT2A receptor [1]
  EC50: > 20 µM
h5-HT2A receptor [2]
  Ki: 1.1 ± 0.3 µM
h5-HT2C receptor
  Ki: > 15 µM

## COc1ccc(C(=O)C(C)N2CCCC2)cc1 (stereo not drawn) [MOPPP, 4-methoxy-α-pyrrolidinopropiophenone]
h5-HT2B receptor
  EC50: > 20 µM
h5-HT2A receptor [1]
  EC50: > 20 µM
h5-HT2A receptor [2]
  Ki: > 13 µM
h5-HT2C receptor
  Ki: > 15 µM

## Cc1ccc(C(=O)C(C)N2CCCC2)cc1 (stereo not drawn) [4-MePPP, 4-methyl-α-pyrrolidinopropiophenone]
h5-HT2B receptor
  EC50: > 10 µM
h5-HT2A receptor [1]
  EC50: > 10 µM
h5-HT2A receptor [2]
  Ki: 1.3 ± 0.4 µM
h5-HT2C receptor
  Ki: > 5.1 µM

## CCCC(C(=O)c1ccccc1)N1CCCC1 (stereo not drawn) [α-PVP, α-pyrrolidinopentiophenone]
h5-HT2B receptor
  EC50: > 20 µM
h5-HT2A receptor [1]
  EC50: > 20 µM
h5-HT2A receptor [2]
  Ki: > 13 µM
h5-HT2C receptor
  Ki: > 15 µM

## CCCCC(NCC)C(=O)c1ccccc1 (stereo not shown) [NEH, N-ethylamine-hexanophenone]
h5-HT2B receptor
  EC50: > 20 µM
h5-HT2A receptor [1]
  EC50: > 20 µM
h5-HT2A receptor [2]
  Ki: > 13 µM
h5-HT2C receptor
  Ki: > 15 µM

## CCC(C(=O)c1ccc2c(c1)OCO2)N1CCCC1 (stereo not drawn) [MDPBP, 3,4-methylenedioxy-α-pyrrolidinobutiophenone]
h5-HT2B receptor
  EC50: > 20 µM
h5-HT2A receptor [1]
  EC50: > 20 µM
h5-HT2A receptor [2]
  Ki: > 13 µM
h5-HT2C receptor
  Ki: > 15 µM
